Results published in article PMC10470313, “Developing a peptide to disrupt cohesin head domain interactions” (iScience, 2023).
Where no end group is shown, it is not given here.

Assays:
U2OS cells = assay: Mitosis time in U2OS cells (live-cell imaging); assay type: cell-based, human; details: 10 nM peptide, 20 h, images every 5 min
Protocol: CIP3 was derived from a highly conserved region of Smc1 (Figure 1D). Therefore, we sought to test its ability to affect cohesin activity in human cells. U2OS cells were diluted into a 96-well plate and grown for about 20 h. Added to this was 10 nM peptide and the cells were grown for another 20 h. Images of the cells were taken every 5 min (Figure 5A). We expected cohesion loss to result in a mitotic delay. We calculated mitosis time starting from the first image in which condensed mitotic chromosomes were visualized until their disappearance at mitosis exit. Strikingly, the average mitosis time in CIP3-TAT treated cells increased by about 10% (from 6 to 6.5 min), indicating a mitotic delay (Figure 5B).
Figure 5 CIP3 causes a mitotic delay in human cells U2OS cells were plated in a 96-well plate and grown for 20 h to allow adherence. […] Mitosis length was determined by counting the number of images in which mitotic chromosomes were visualized. […] (B) Quantitation of mitosis length in untreated and CIP3-TAT treated cells. At least 300 cells were counted for each condition. ∗∗∗p < 0.0001.
U2OS cells were maintained in Dulbecco's Modified Eagle Medium (DMEM) (Gibco) with 10% fetal bovine serum (FBS) (Corning), 2 mM l-glutamine (Gibco), 1% penicillin-streptomycin (Gibco), and 1 mM sodium pyruvate (Gibco), at 37°C, 5% CO2. […] The significance between conditions was determined by using Student's t-test.

yeast cells, G2/M = assay: Chromosome condensation by two-photon microscopy; assay type: cell-based; details: nuclear-integrated density divided by circumference, at least 40 nuclei
Protocol: Chromosome condensation depends on cohesin. However, this cohesin function can be separated from sister chromatid cohesion activity.[45]^,[46] We tested this possibility by analyzing chromatin in G2/M cells via two-photon microscopy.[47]^,[48] Cells were grown and treated as before.
The method is described in.[47]^,[48] Briefly, cells were grown to mid-log phase. Two-photon microscopy of live cells was performed with the LSM780 (Zeiss) inverted confocal microscope, using the Chameleon Vision II (Coherent) multiphoton laser (3 W, pulse width 140 fs at peak, repetition rate 80 MHz, tuning range 680-1080 nm, excitation 768 nm/image collection 512 nm). Slides were visualized with X63 N/A 1.4 objective lenses. Cells in G2/M were selected based on their morphology. Images were analyzed using Image J processing software. The condensation level is represented by the division of the nuclear-integrated density by its circumference. The significance between conditions was determined by using Student's t-test.

[1] = test system: cohesin (Smc3-V5) on chromatin, yKS-008 strain; assay: Chromatin immunoprecipitation (ChIP) of cohesin (Smc3-V5); assay type: cell-based, yeast; details: G2/M arrested; anti-V5 ChIP-qPCR; centromeres of chromosomes 3 and 4, rDNA locus chromosome 12, CARC1 chromosome 3
Protocol: To test the effect of CIP3 on the association of cohesin with chromatin, we performed a chromatin immunoprecipitation (ChIP) assay. yKS-008 strain (Smc3-V5) cells were grown to mid-log phase and arrested in the G1 phase of the cell cycle. Cells were untreated or supplemented with CIP3-TAT and then released into the cell cycle until they were rearrested at the G2/M phase. Cells were processed for ChIP with antibodies against V5 (Figure 4D). Cohesin residency was explored on loci on which cohesin enrichment: the centromeres of chromosome 3 and chromosome 4, the rDNA locus on chromosome 12 and the cohesin-associated region C1 (CARC1) on chromosome 3. […] However, it stabilizes non-cohesive chromosome-bound cohesin. […] Thus, we conclude that CIP3 inhibits ATP hydrolysis rather than blocks ATP binding and cohesin loading.
The cohesion GFP dot assay and ChIP are described in.[46]^,[63]^,[68] In brief, cohesion was studied by visualizing LacO arrays inserted at the LYS locus in a strain expressing LacI-GFP. Cell cultures were grown in a YEPD to OD600=0.5 and synchronized by nocodazole. Cells were fixed by incubating with 100 μl of 4% paraformaldehyde, 15min at room temperature and washed once (5,000rpm, 30sec, room temperature) with 1ml KOP4/sorbitol solution (0.1 M KOP4 pH=7.5 with 1.2 M sorbitol), resuspended in 100 μl of KOP4/sorbitol and stored at 4°C up to one month. […]

[2] = test system: yME-961 strain yeast cells; assay: Sister chromatid cohesion GFP dot assay; assay type: cell-based; details: peptide 1 h at G1, release, G2/M arrest
Protocol: Figure 4 CIP3 inhibits sister chromatid cohesion and chromosome condensation (A) Flowchart outlining the sister chromatid cohesion assay. (B) yME-961 strain cells were grown and treated with peptides, as shown in A. Premature sister chromatid separation was determined by counting the number of cells showing two GFP dots. At least 300 cells were counted in 3 independent experiments. ∗∗p < 0.001. (C) Cells were grown to mid-log phase. The culture was divided into two flasks, one being treated with CIP3-TAT. Condensation was determined in cells at the G2/M phase by 2-photon microscopy. ∗∗p < 0.001. (D) yKS-008 strain (Smc3-V5) cells were grown and treated with CIP3-TAT peptide, as shown in A. Cells were processed for ChIP with antibodies against V5.
The potential of CIP3-TAT to inhibit cohesion activity was explored by analyzing sister chromatid cohesion in cells arrested at the G2/M. Inserted in the LYS4 locus were LacO arrays, which bind LacI-GFP. In unperturbed cells arrested at the G2/M phase of the cell cycle, cohesin tethers the sister chromatids visualized under the microscope as a single GFP dot. When cohesin is inactivated, the sister chromatids fall apart and are seen as two distinctive GFP dots. yME-961 strain cells were grown to mid-log phase and arrested at the G1 phase of the cell cycle. […]

Sequence: KRFKDMEYLSGGEKTGGYGRKKRRQRRR [CIP3-TAT]
- average mitosis time (U2OS cells; untreated: 6 min, at least 300 cells per condition): 6.5 min
- increase of average mitosis time (U2OS cells; vs untreated): about 10%
- chromatin condensation (yeast cells, G2/M): chromatin was decondensed in comparison with the untreated cells
- cohesin residency on chromatin [1]: cohesin residency increased in cells treated with CIP3-TAT in all tested regions
- sister chromatid cohesion level [2]: precocious separation of the sister chromatids
- cells with precocious separation of sister chromatids (two GFP dots) ([2]; LacO at LYS4, at least 300 cells in 3 independent experiments): approximately 80%
